# Data: patent US10316008B2, “KCNQ potassium channel agonist, and preparation method therefor and use thereof” (SHANGHAI INSTITUTE OF MATERIA MEDICA, CHINESE ACADEMY OF …, priority 2014, dated 2019)
# Experiments:
# [1] = biological target: T1, KCNQ2/3 heterotetramer channel (Homo sapiens, UniProt O43525+O43526); assay: KCNQ2/3 heterotetramer channel dose-response curve in CHO-K1 cells cotransfected with KCNQ2 and KCNQ3 plasmids; format: cell-based
# T1 construct: expressed in transfected cells; host or cells: CHO-K1
# Method: (§1) The culture medium for Chinese hamster oocytes (CHO-K1) (Culture Collection of Chinese Academy of Sciences): 50/50 DMEM/F-12 (Cellgro, Manassas, Va.), added with 10% fetal bovine serum (FBS) (Gibco, Australia) and 2 mM L-glutamic acid (Invitrogen). Expression of KCNQ channels: 24 h before transfection, CHO-K1 spreaded on a dish with a diameter of 60 mm. Lipofectamine 2000™ agent (Invitrogen) was used for Transfection according to the protocol thereof. GFP (green fluorescent protein) was cotransfected to be used as a indication of successful converting into KCNQ plasmid.
# (§2) Whole-cell voltage-clamp recording was performed on an Axopatch-200B amplifier (Molecular Devices, Sunnyvale, Calif.) at room temperature. The electrode was made by drawing borosilicate glass capillary (World Precision Instruments, Sarasota, Fla.). The electric resistance of the electrode filled with an intracellular fluid is 3 to 5 MΩ. The composition of the intracellular fluid (1 L) was as follows: 145 mM KCl(Sigma), 1 mM MgCl2(Sigma), 5 mM EGTA(Sigma), 10 mM HEPES(Sigma) and 5 mM MgATP(Sigma) (pH was adjusted to 7.3 with KOH). During the recording, an extracellular fluid was continuously perfused by using a BPS perfusion system (ALA Scientific Instruments, Westburg, N.Y.). The composition of the extracellular fluid (1 L) was as follows: 140 mM NaCl(Sigma), 5 mM KCl(Sigma), 2 mM CaCl2(Sigma), 1.5 mM MgCl2(Sigma), 10 mM HEPES(Sigma) and 10 mM glucose(Sigma) (pH was adjusted to 7.4 with NaOH). Electric signal was filtered at 1 kHz and further converted into digital signal by using pClamp 9.2 software (Molecular Devices, Sunnyvale, Calif.) in DigiData 1322A. Series resistors compensate 60 to 80%. Up to date, multivoltage scheme was generally adopted, wherein the clamp voltage was set at −80 mV, stimulating voltage was a gradient voltage from −90 mV to 60 mV with interval of 10 mV, and the stimulating time for each voltage was 2000 ms.
# (§3) The experimental procedure was the same as that in Electrophysiological Example 1. […]
# [2] = biological target: T2, KCNQ2 homotetramer channel (Homo sapiens, UniProt O43526); assay: KCNQ2 channel dose-response curve in CHO-K1 cells transfected with KCNQ2 plasmid; format: cell-based
# T2 construct: expressed in transfected cells; host or cells: CHO-K1
# T2 sequence (O43526 whole entry): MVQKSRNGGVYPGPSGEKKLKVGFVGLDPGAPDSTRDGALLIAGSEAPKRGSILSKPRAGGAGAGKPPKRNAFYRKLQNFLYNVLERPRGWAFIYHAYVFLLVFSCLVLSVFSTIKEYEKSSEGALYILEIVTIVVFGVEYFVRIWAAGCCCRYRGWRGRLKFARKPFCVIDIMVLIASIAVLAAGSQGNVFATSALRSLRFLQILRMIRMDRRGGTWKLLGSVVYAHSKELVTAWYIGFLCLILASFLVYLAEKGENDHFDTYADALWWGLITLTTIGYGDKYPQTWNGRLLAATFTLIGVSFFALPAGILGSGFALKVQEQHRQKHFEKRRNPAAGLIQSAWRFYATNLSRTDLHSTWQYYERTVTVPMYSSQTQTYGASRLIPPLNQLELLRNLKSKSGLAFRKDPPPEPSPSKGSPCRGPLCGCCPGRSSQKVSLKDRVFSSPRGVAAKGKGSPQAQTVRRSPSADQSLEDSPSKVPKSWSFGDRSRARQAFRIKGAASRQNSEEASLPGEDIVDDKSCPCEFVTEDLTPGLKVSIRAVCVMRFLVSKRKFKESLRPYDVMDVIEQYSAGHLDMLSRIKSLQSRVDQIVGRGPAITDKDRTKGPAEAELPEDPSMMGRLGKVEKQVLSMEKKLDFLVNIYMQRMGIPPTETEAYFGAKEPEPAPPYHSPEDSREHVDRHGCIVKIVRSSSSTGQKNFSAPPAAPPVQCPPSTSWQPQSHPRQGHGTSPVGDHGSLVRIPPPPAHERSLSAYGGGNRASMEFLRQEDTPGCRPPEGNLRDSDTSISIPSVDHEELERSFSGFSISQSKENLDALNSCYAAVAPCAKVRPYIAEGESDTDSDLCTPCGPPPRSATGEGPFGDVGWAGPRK
# Method: as §1, §2, §3
compound,measurement,setting,value
"C#CCN(Cc1ccc(F)cc1)c1cc(C)c(NC(=O)OC)c(C)c1 [Compound K43, methyl 4-(N-parafluorobenzyl-N-propargyl-amino)-2,6-dimethylphenylaminoformate]",EC50,"[1]; FIG. 2, Boltzmann fit",49 nM
same,agonistic activity on KCNQ2/3 heterotetramer channel relative to K21,[1]; fold of K21,≥ 20 times
same,agonistic activity on KCNQ2/3 heterotetramer channel relative to RTG,[1]; fold of RTG,≥ 30 times
same,EC50,"[2]; FIG. 1, Boltzmann fit, read-out: EC50",1.53 nM
same,agonistic activity on KCNQ2 homotetramer channel relative to RTG,[2]; fold of RTG,more than 800 times
